Laboratory results from patent US12371454B2, “Cyclic peptide compound having Kras inhibitory action” (priority 2019, dated 2025).
Starred links: 1 amine or outer side, 2 acyl side, 3 side chain; linkers in the order of their positions; H or OH if unused. Positions of bridges follow the written chain, without caps; N, C: chain ends. Non-standard residues stand in square brackets, D forms with d. Residues, ends and D or L forms follow the SMILES beside them. *: point of attachment. hPhe(3,5-F2-4-CF3) = N[C@@H](CCc1cc(F)c(C(F)(F)F)c(F)c1)C(=O)O; hPhe(3-Cl-4-CF3) = N[C@@H](CCc1ccc(C(F)(F)F)c(Cl)c1)C(=O)O; hPhe(3-F,4-CF3) = N[C@@H](CCc1ccc(C(F)(F)F)c(F)c1)C(=O)O; NMePhe(4-CF3) = CN[C@@H](Cc1ccc(C(F)(F)F)cc1)C(=O)O; NMePhe(4-Cl) = CN[C@@H](Cc1ccc(Cl)cc1)C(=O)O; NMePhe(2-OMe) = CN[C@@H](Cc1ccccc1OC)C(=O)O; NMedβ3hAla = C[C@H](CC(=O)[*:2])N(C)[*:1]; NMeGly(cPent) = CN[C@H](C(=O)O)C1CCCC1; Phe(3-I) = N[C@@H](Cc1cccc(I)c1)C(=O)O; Pro(4,4-F2) = O=C(O)[C@@H]1CC(F)(F)CN1; NMeCha = CN[C@@H](CC1CCCCC1)C(=O)O; NMeChg = CN[C@H](C(=O)O)C1CCCCC1; hPhe = N[C@@H](CCc1ccccc1)C(=O)O; NMeD = CN[C@@H](CC(=O)O)C(=O)O; NMeL = CN[C@@H](CC(C)C)C(=O)O; Chg = N[C@H](C(=O)O)C1CCCCC1; NMeV = CN[C@H](C(=O)O)C(C)C; d(β3hA) = C[C@@H](N)CC(=O)O; dIva = CC[C@@](C)(N)C(=O)O; dPip = O=C(O)[C@H]1CCCCN1; NMeA = CN[C@@H](C)C(=O)O; Nle = CCCC[C@H](N)C(=O)O; Piperidide = C1CCN(*)CC1; Ac5c = NC1(C(=O)O)CCCC1; Aze = O=C(O)[C@@H]1CCN1; Ac3c = NC1(C(=O)O)CC1; Sar = CNCC(=O)O

Target: T1, Kras and SOS1 (biotin-tagged human Kras loaded with GDP, His-tagged human SOS1) (Homo sapiens, UniProt P01116, G12D)
T1 construct: made in house; host or cells: E. coli (stated for Kras only)
Assay: Protein-protein interaction inhibition between Kras and SOS1 (KrasGl2D-SOS PPI) using AlphaScreen
Type: binding
Conditions: AlphaScreen; biotin-tagged human Kras loaded with GDP, His-tagged human SOS1; read-out: KRAS G12D-SOS PPI IC50
Procedure, shortened: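 Energy transfer from nickel-chelate donor beads bound to His-SOS1 to streptavidin acceptor beads bound to biotin-Kras, expressed in E. coli and loaded with GDP after purification, was monitored. Donors were excited at 680 nm; singlet oxygen reaching acceptors gave emission read at 520-620 nm.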

T1 sequence (P01116 1-188 isoform P01116-2 G12D): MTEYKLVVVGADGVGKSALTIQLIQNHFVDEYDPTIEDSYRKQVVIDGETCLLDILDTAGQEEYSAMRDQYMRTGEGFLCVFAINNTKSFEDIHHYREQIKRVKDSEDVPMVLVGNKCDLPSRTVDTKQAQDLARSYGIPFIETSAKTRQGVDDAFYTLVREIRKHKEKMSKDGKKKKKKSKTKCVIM

SMILES	IC50
CCCC[C@@H]1NC(=O)[C@H](Cc2cccc(I)c2)NC(=O)CN(C)C(=O)[C@H](Cc2ccc(Cl)cc2)N(C)C(=O)CN(C)C(=O)CN(C)C(=O)[C@H]([C@@H](C)CC)NC(=O)[C@H](CC(C)C)N(C)C(=O)C[C@@H](C(=O)N2CCCCC2)N(C)C(=O)[C@H](CC(C)C)NC(=O)[C@H](Cc2ccccc2OC)N(C)C1=O [Compound 259] ([NMeL]I[Sar][Sar][NMePhe(4-Cl)][Sar][Phe(3-I)][Nle][NMePhe(2-OMe)]L[NMeD]-Piperidide; lactam N-11)	21 nM
CC[C@H](C)[C@@H]1NC(=O)[C@H](CC(C)C)N(C)C(=O)C[C@@H](C(=O)N2CCCCC2)N(C)C(=O)[C@H](C(C)C)N(C)C(=O)C2(CCCC2)NC(=O)[C@@H]2CCCN2C(=O)[C@H](CCc2ccccc2)NC(=O)CN(C)C(=O)[C@H](CC2CCCCC2)N(C)C(=O)CN(C)C(=O)CN(C)C1=O [Compound 265] ([NMeL]I[Sar][Sar][NMeCha][Sar][hPhe]P[Ac5c][NMeV][NMeD]-Piperidide; lactam N-11)	280 nM
CC[C@H](C)[C@@H]1NC(=O)[C@H](C)N(C)C(=O)C[C@@H](C(=O)N2CCCCC2)N(C)C(=O)[C@H](C(C)C)N(C)C(=O)C2(CCCC2)NC(=O)[C@@H]2CCCN2C(=O)[C@H](CCc2ccc(C(F)(F)F)c(F)c2)NC(=O)CN(C)C(=O)[C@H](CC2CCCCC2)N(C)C(=O)CN(C)C(=O)CN(C)C1=O [Compound 266] ([NMeA]I[Sar][Sar][NMeCha][Sar][hPhe(3-F,4-CF3)]P[Ac5c][NMeV][NMeD]-Piperidide; lactam N-11)	4.6 nM
CC[C@H](C)[C@@H]1NC(=O)[C@H](C)N(C)C(=O)C[C@@H](C)NC(=O)[C@H](C(C)C)N(C)C(=O)C2(CCCC2)NC(=O)[C@@H]2CCCN2C(=O)[C@H](CCc2ccc(C(F)(F)F)c(Cl)c2)NC(=O)[C@H]2CCCCN2C(=O)[C@H](CC2CCCCC2)N(C)C(=O)[C@@H]2CCN2C(=O)CN(C)C1=O [Compound 267] (cyclo([Ac5c][NMeV][d(β3hA)][NMeA]I[Sar][Aze][NMeCha][dPip][hPhe(3-Cl-4-CF3)]P))	130 nM
CC[C@H](C)[C@@H]1NC(=O)[C@H](CC(C)C)N(C)C(=O)C[C@@H](C)N(C)C(=O)[C@H](C(C)C)N(C)C(=O)C2(CC2)NC(=O)[C@@H]2CCCN2C(=O)[C@H](CCc2ccc(C(F)(F)F)c(Cl)c2)NC(=O)CN(C)C(=O)[C@H](CC2CCCCC2)N(C)C(=O)CN(C)C(=O)CN(C)C1=O [Compound 268] (cyclo([Ac3c][NMeV][NMedβ3hAla][NMeL]I[Sar][Sar][NMeCha][Sar][hPhe(3-Cl-4-CF3)]P))	18 nM
CC[C@H](C)[C@@H]1NC(=O)[C@H](CC(C)C)N(C)C(=O)C[C@@H](C)N(C)C(=O)[C@H](C2CCCC2)N(C)C(=O)C2(CCCC2)NC(=O)[C@@H]2CC(F)(F)CN2C(=O)[C@H](CCc2cc(F)c(C(F)(F)F)c(F)c2)NC(=O)CN(C)C(=O)[C@H](Cc2ccc(C(F)(F)F)cc2)N(C)C(=O)CN(C)C(=O)CN(C)C1=O [Compound 269] (cyclo([Ac5c][NMeGly(cPent)][NMedβ3hAla][NMeL]I[Sar][Sar][NMePhe(4-CF3)][Sar][hPhe(3,5-F2-4-CF3)][Pro(4,4-F2)]))	3.4 nM
CC[C@H](C)[C@@H]1NC(=O)[C@H](CC(C)C)N(C)C(=O)C[C@@H](C)NC(=O)[C@H](C(C)C)N(C)C(=O)[C@@](C)(CC)NC(=O)[C@@H]2CCCN2C(=O)[C@H](CCc2ccc(C(F)(F)F)c(Cl)c2)NC(=O)CN(C)C(=O)[C@H](CC2CCCCC2)N(C)C(=O)CN(C)C(=O)CN(C)C1=O [Compound 275] (cyclo(I[Sar][Sar][NMeCha][Sar][hPhe(3-Cl-4-CF3)]P[dIva][NMeV][d(β3hA)][NMeL]))	46 nM
CC[C@H](C)[C@@H]1NC(=O)[C@H](CC(C)C)N(C)C(=O)C[C@@H](C(=O)N2CCCCC2)N(C)C(=O)[C@H](C2CCCCC2)N(C)C(=O)C2(CCCC2)NC(=O)[C@@H](C)NC(=O)[C@H](CCc2ccc(C(F)(F)F)c(Cl)c2)NC(=O)CN(C)C(=O)[C@H](CC2CCCCC2)N(C)C(=O)CN(C)C(=O)CN(C)C1=O [Compound 277] ([NMeL]I[Sar][Sar][NMeCha][Sar][hPhe(3-Cl-4-CF3)][dA][Ac5c][NMeChg][NMeD]-Piperidide; lactam N-11)	5.1 nM
CC(C)C[C@H]1C(=O)N[C@@H](C2CCCCC2)C(=O)N(C)CC(=O)N(C)CC(=O)N(C)[C@@H](CC2CCCCC2)C(=O)N(C)CC(=O)N[C@@H](CCc2ccc(C(F)(F)F)c(Cl)c2)C(=O)N2CCC[C@H]2C(=O)NC2(CCCC2)C(=O)N(C)[C@@H](C(C)C)C(=O)N(C)[C@H](C(=O)N2CCCCC2)CC(=O)N1C [Compound 281] ([NMeL][Chg][Sar][Sar][NMeCha][Sar][hPhe(3-Cl-4-CF3)]P[Ac5c][NMeV][NMeD]-Piperidide; lactam N-11)	7.8 nM
